The source of these data is patent US8580812B2, “Heteroaryl amide analogues as P2X7 antagonists” (H. Lundbeck A/S, priority 2007, dated 2013).

As usually defined, the IC50 is the concentration needed to halve the response being measured.

Where only a bound is given, the exact number is not on record here.

The assay has as its target T1, P2X7 (Homo sapiens, UniProt Q99572).
T1 construct: host or cells: SH-SY5Y
T1 sequence (Q99572 1-595): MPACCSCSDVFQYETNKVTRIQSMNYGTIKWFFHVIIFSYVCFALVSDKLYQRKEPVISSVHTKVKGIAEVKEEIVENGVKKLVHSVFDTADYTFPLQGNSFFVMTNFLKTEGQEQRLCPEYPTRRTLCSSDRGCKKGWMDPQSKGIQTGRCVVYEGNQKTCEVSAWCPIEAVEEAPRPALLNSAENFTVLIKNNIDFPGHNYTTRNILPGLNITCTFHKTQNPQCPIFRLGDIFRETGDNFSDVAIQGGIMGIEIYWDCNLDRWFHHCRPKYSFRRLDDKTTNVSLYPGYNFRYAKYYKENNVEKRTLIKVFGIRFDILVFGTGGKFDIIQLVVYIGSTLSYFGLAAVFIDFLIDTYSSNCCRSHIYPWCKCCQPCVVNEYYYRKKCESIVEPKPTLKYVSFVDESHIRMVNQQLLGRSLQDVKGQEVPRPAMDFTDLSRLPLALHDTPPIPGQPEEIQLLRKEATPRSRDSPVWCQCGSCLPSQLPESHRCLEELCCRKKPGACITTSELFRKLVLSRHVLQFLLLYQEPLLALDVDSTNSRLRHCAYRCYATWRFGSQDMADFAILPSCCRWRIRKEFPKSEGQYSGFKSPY
Put plainly: High Throughput P2X7 Calcium Mobilization Assay (Example 4A), antagonist activity. Type of assay: cell-based. The note with it: SH-SY5Y cells, 50% decrease in fluorescence response of cells exposed to 80 μM BzATP. The procedure: A. High Throughput P2X7 Calcium Mobilization Assay
SH-SY5Y cells, ATCC Number CRL-2266, (American Type Culture Collection, Manassas, Va.) are cultured under DMEM/High medium supplemented with 10% FBS, and 10 mM HEPES (Invitrogen Corp., Carlsbad, Calif.) in 5% CO2 and at 37° C. One day prior to the experiment, cells are plated at a density of 100,000 cells/well in a 96 well black/clear TC plate (Corning® Costar®, Sigma-Aldrich Co., St. Louis, Mo.). At the beginning of the experiment, the culture medium is removed and cells are incubated with 50 μL of 2.3 μM Fluo-4 AM dye (Invitrogen Corp.) in the assay solution (5 mM KCl, 9.6 mM NaH2PO4.H2O, 25 mM HEPES, 280 mM Sucrose, 5 mM Glucose, and 0.5 mM CaCl2; pH is adjusted to 7.4 with NaOH) for an hour at 37° C. After one hour dye incubation, wells are rinsed once with 50 μL assay solution, and are then incubated for an hour at room temperature with 100 μL assay solution containing the test compound. The final concentration of test compound generally ranges from 1 to 2500 nM; for positive control cells, no test compound is added. After the one hour incubation, plates are transferred to a FLIPR^TETRA instrument (Molecular Devices, Sunnyvale, Calif.) for calcium mobilization analysis.
For determination of antagonist activity, 50 μL of P2X7 agonist (2′(3′)-O-(4-benzoyl-benzoyl)adenosine 5′-triphosephate (BzATP; Sigma-Aldrich) in the assay solution is transferred using the FLIPR into the plate, such that the final agonist concentration is 80 μM (about EC50). In negative control cells, 50 μL of assay solution without agonist is added at this stage. The peak fluorescence signal over a 2 minute period is then measured.
First, the average maximum relative fluorescent unit (RFU) response from the negative control wells (no agonist) is subtracted from the maximum response detected for each of the other experimental wells. Second, average maximum RFU response is calculated for the positive control wells (agonist wells). Then, percent inhibition for each compound tested is calculated using the equation: Percent Inhibition=100−100×(Peak Signal in Test Cells/Peak Signal in Control Cells) The % inhibition data is plotted as a function of test compound concentration and test compound IC50 is determined using, for example, KALEIDAGRAPH software (Synergy Software, Reading, Pa.) best fit of the data to the equation: y=m1*(1/(1+(m2/m0)^m3)) where y is the percent inhibition, m0 is […], m1 is the maximum RFU, m2 corresponds to the test compound IC50 (the concentration required to provide a 50% decrease, relative to the response observed in the presence of agonist and without antagonist) and m3 is the Hill coefficient.
In general terms: Calcium assays in cells follow changes in intracellular calcium, usually with a dye or a luminescent sensor.
`CN(C(=O)c1cc2c(C(=O)NCC34CC5CC(CC(C5)C3)C4)cccn2n1)c1ccncc1` [Compound 39, 4-N-(adamantan-1-ylmethyl)-2-N-methyl-2-N-pyridin-4-ylpyrazolo[1,5-a]pyridine-2,4-dicarboxamide]: the 50% inhibitory concentration (IC50) was at most 2000 nM.

Take `CC(C)CC(CNC(=O)c1cccn2nc(C(=O)N3C[C@@H](C)O[C@@H](C)C3)cc12)c1ccc(C(F)(F)F)cc1` (single isomer, unassigned) [Compound 100]: the IC50 is at most 2000 nM.

Consider `CN(Cc1ccc(F)cc1)Cc1cc2c(C(=O)NCC34CC5CC(CC(C5)C3)C4)cccn2n1` [Compound 70, N-(adamantan-1-ylmethyl)-2-{[(4-fluorobenzyl)(methyl)amino]methyl}pyrazolo [1,5-a]pyridine-4-carboxamide], for which the IC50 is at most 2000 nM.

Consider `CN(CC(F)F)C(=O)c1cc2c(C(=O)NCC34CC5CC(CC(C5)C3)C4)cccn2n1` [Compound 75, 4-N-(adamantan-1-ylmethyl)-2-N-(2,2-difluoroethyl)-2-N-methylpyrazolo[1,5-a]pyridine-2,4-dicarboxamide], for which the IC50 is at most 2000 nM.

On to `CC(C)CC(CNC(=O)c1cccn2nc(C(=O)N3CCOC(C)(C)C3)cc12)c1ccc(C(F)(F)F)cc1` (stereo not drawn) [Compound 101, 2-[(2,2-dimethylmorpholin-4-yl)carbonyl]-N-{4-methyl-2-[4-(trifluoromethyl)phenyl]pentyl}pyrazolo[1,5-a]pyridine-4-carboxamide], for which the concentration for half-maximal inhibition (IC50) is at most 2000 nM.

As to `CN(Cc1cccnc1)C(=O)c1cc2c(C(=O)NCC34CC5CC(CC(C5)C3)C4)cccn2n1` [Compound 21, 4-N-(adamantan-1-ylmethyl)-2-N-methyl-2-N-(pyridin-3-ylmethyl)pyrazolo[1,5-a]pyridine-2,4-dicarboxamide], the IC50 was at most 2000 nM.

As to `O=C(NCC12CC3CC(CC(C3)C1)C2)c1cccn2nc(C(=O)N3CCn4cnnc4C3)cc12` [Compound 24, N-(adamantan-1-ylmethyl)-2-(5,6-dihydro[1,2,4]triazolo [4,3-a]pyrazin-7(8H)-ylcarbonyl)pyrazolo [1,5-a]pyridine-4-carboxamide], the half-maximal inhibitory concentration (IC50) was at most 2000 nM.

Consider `O=C(CC12CC3CC(CC(C3)C1)C2)Nc1cccn2nc(C(=O)N3CCOCC3)cc12` [Compound 96, 2-adamantan-1-yl-N-[2-(morpholin-4-ylcarbonyl)pyrazolo [1,5-a]pyridin-4-yl]acetamide], for which the concentration for half-maximal inhibition (IC50) is at most 2000 nM.

On to `CC(C)CC(CNC(=O)c1cccn2nc(C(=O)N3CC[C@@H](N)C3)cc12)c1cccnc1` (stereo partly drawn) [Compound 56, 2-{[(3R)-3-aminopyrrolidin-1-yl]carbonyl}-N-(4-methyl-2-pyridin-3-ylpentyl)pyrazolo[1,5-a]pyridine-4-carboxamide], for which the IC50 is at most 2000 nM.

As for `CC(C)CC(CNC(=O)c1cccn2nc(C(=O)N(C)CCF)cc12)c1ccc(C(F)(F)F)cc1` (stereo not drawn) [Compound 86, 2-N-(2-fluoroethyl)-2-N-methyl-4-N-{4-methyl-2-[4-(trifluoromethyl)phenyl]pentyl}pyrazolo[1,5-a]pyridine-2,4-dicarboxamide], the IC50 was at most 2000 nM.

For `O=C(Cc1cc2c(C(=O)NCC34CC5CC(CC(C5)C3)C4)cccn2n1)NCCF` [Compound 59, N-(adamantan-1-ylmethyl)-2-{2-[(2-fluoroethyl)amino]-2-oxoethyl}pyrazolo[1,5-a]pyridine-4-carboxamide], the half-inhibitory concentration (IC50) was at most 2000 nM.

In the case of `CN(Cc1ccncc1)C(=O)c1cc2c(C(=O)NCC34CC5CC(CC(C5)C3)C4)cccn2n1` [Compound 33, 4-N-(adamantan-1-ylmethyl)-2-N-methyl-2-N-(pyridin-4-ylmethyl)pyrazolo[1,5-a]pyridine-2,4-dicarboxamide], the IC50 was at most 2000 nM.

For the compound `CCN[C@@H]1CCN(C(=O)c2cc3c(C(=O)NCC45CC6CC(CC(C6)C4)C5)cccn3n2)C1` [Compound 47, N-(adamantan-1-ylmethyl)-2-{[(3R)-3-(ethylamino)pyrrolidin-1-yl]carbonyl}pyrazolo [1,5-a]pyridine-4-carboxamide], the 50% inhibitory concentration (IC50) is at most 2000 nM.

As for `CC(C)CC(CNC(=O)c1cccn2nc(C(=O)N3CC[C@@H](N)C3)cc12)c1ccc(C(F)(F)F)cc1` (stereo partly drawn) [Compound 80, 2-{[(3R)-3-aminopyrrolidin-1-yl]carbonyl}-N-{4-methyl-2-[4-(trifluoromethyl)phenyl]pentyl}pyrazolo[1,5-a]pyridine-4-carboxamide], the IC50 is at most 2000 nM.

Regarding `CCOC(=O)CNC(=O)c1cc2c(C(=O)NCC34CC5CC(CC(C5)C3)C4)cccn2n1` [Compound 41, ethyl N-({4-[(adamantan-1-ylmethyl)carbamoyl]pyrazolo[1,5-a]pyridin-2-yl}carbonyl)glycinate], the 50% inhibitory concentration (IC50) is at most 2000 nM.

With `CCN(CC)[C@@H]1CCN(C(=O)c2cc3c(C(=O)NCC45CC6CC(CC(C6)C4)C5)cccn3n2)C1` [Compound 31, N-(adamantan-1-ylmethyl)-2-{[(3R)-3-(diethylamino)pyrrolidin-1-yl]carbonyl}pyrazolo [1,5-a]pyridine-4-carboxamide], the IC50 is at most 2000 nM.

With `O=C(NCCF)c1cc2c(C(=O)NCC34CC5CC(CC(C5)C3)C4)cccn2n1` [Compound 62, 4-N-(adamantan-1-ylmethyl)-2-N-(2-fluoroethyl)pyrazolo [1,5-a]pyridine-2,4-dicarboxamide], the IC50 is at most 2000 nM.

On to `CN(Cc1cc2c(C(=O)NCC34CC5CC(CC(C5)C3)C4)cccn2n1)Cc1ccccc1F` [Compound 68, N-(adamantan-1-ylmethyl)-2-{[(2-fluorobenzyl)(methyl)amino]methyl}pyrazolo [1,5-a]pyridine-4-carboxamide], for which the concentration for half-maximal inhibition (IC50) is at most 2000 nM.

On to `CN[C@@H]1CCN(C(=O)c2cc3c(C(=O)NCC45CC6CC(CC(C6)C4)C5)cccn3n2)C1` [Compound 46, N-(adamantan-1-ylmethyl)-2-{[(3R)-3-(methylamino)pyrrolidin-1-yl]carbonyl}pyrazolo [1,5-a]pyridine-4-carboxamide], for which the IC50 was at most 2000 nM.

In the case of `N#Cc1ccc(C(=O)c2ccc3c(C(=O)NCC45CC6CC(CC(C6)C4)C5)cccn23)cc1` [Compound 109, N-(adamantan-1-ylmethyl)-3-(4-cyanobenzoyl)indolizine-8-carboxamide], the IC50 is at most 2000 nM.

`O=C(NCC12CC3CC(CC(C3)C1)C2)c1cccn2nc(CCC3=NCCN3)cc12` [Compound 95, N-(adamantan-1-ylmethyl)-2-[2-(4,5-dihydro-1H-imidazol-2-yl)ethyl]pyrazolo[1,5-a]pyridine-4-carboxamide]: the concentration for half-maximal inhibition (IC50) is at most 2000 nM.

Turning to `O=C(Cc1cc2c(C(=O)NCC34CC5CC(CC(C5)C3)C4)cccn2n1)NCC(F)F` [Compound 60, N-(adamantan-1-ylmethyl)-2-{2-[(2,2-difluoroethyl)amino]-2-oxoethyl}pyrazolo[1,5-a]pyridine-4-carboxamide], the IC50 was at most 2000 nM.

Turning to `N[C@@H]1CCN(C(=O)c2cc3c(C(=O)NCC4(c5ccc(Cl)cc5)CCCCC4)cccn3n2)C1` [Compound 90, 2-{[(3R)-3-aminopyrrolidin-1-yl]carbonyl}-N-{[1-(4-chlorophenyl)cyclohex-yl]methyl}pyrazolo[1,5-a]pyridine-4-carboxamide], the IC50 was at most 2000 nM.

In the case of “2-{[(3R)-3- aminopyrrolidin-1- yl]carbonyl}-N-[4- methyl-2-(4- methylphenyl)pentyl] pyrazolo[1,5-a]pyridine- 4-carboxamide [Compound 73]”, the half-inhibitory concentration (IC50) is at most 2000 nM.
